In article PMC10458360, “Assembling a Cinnamyl Pharmacophore in the C3-Position of Substituted Isatins via Microwave-Assisted Synthesis: Development of a New Class of Monoamine Oxidase-B Inhibitors for the Treatment of Parkinson’s Disease” (Molecules, 2023):

Experiments:
MAO-B [1] = details: cited from earlier work
MAO-B [2] = target: T1, MAO-B (Homo sapiens, UniProt P27338); experiment: biochemical; details: 0.3 mM benzylamine; for IC50: IC50 (µM) MAO-B, limit 40 µM; for remaining activity at 10 µM: read-out: Residual Activity at 10 µM (%) MAO-B, 10 µM compound
T1 sequence (P27338 1-520): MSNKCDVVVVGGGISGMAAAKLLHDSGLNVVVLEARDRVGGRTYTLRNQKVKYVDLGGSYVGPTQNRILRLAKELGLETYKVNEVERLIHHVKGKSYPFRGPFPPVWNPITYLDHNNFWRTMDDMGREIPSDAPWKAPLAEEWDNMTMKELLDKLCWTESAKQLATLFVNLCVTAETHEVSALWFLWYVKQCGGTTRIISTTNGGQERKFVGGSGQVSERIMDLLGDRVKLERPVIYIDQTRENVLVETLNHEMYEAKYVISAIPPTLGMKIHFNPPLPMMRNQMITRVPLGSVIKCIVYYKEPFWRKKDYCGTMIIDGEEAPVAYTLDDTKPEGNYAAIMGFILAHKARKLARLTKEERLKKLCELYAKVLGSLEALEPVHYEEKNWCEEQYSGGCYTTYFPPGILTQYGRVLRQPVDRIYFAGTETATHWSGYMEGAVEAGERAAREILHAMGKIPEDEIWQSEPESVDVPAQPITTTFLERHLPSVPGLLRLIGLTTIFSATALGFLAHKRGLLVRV

MAO-A = target: T2, MAO-A (Homo sapiens, UniProt P21397); experiment: Inhibition of MAO-A (kynuramine, continuous absorbance assay); details: for remaining activity at 10 µM: read-out: Residual Activity at 10 µM (%) MAO-A
T2 sequence (P21397 1-527): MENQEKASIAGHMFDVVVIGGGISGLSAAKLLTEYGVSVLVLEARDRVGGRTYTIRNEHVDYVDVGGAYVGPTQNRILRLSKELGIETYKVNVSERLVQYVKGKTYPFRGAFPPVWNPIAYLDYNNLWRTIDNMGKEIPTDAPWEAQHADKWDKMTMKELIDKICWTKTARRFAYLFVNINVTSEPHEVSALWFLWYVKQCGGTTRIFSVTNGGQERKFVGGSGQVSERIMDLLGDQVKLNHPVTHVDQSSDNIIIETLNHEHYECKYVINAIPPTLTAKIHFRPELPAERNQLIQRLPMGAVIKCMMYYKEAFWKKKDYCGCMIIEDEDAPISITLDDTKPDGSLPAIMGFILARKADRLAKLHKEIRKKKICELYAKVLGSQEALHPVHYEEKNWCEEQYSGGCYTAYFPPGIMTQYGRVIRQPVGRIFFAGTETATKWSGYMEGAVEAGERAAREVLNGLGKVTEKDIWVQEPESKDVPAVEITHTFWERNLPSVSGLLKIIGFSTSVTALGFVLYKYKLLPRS

MAO-B [3] = target: T1, MAO-B; details: for SI (selectivity index): IC50 for MAO-A/IC50 for MAO-B
MAO-B [4] = target: T1, MAO-B; experiment: MAO-B enzyme kinetics (Lineweaver-Burk and secondary plot); assay type: biochemical
MAO-B [5] = target: T1, MAO-B; experiment: Reversibility of MAO-B inhibition by dialysis; assay type: biochemical; details: for Residual activity, dialyzed (AD): dialyzed 6 h, two buffer changes
SH-SY5Y cells = experiment: Neuroprotection on rotenone-induced SH-SY5Y cells by MTT assay; assay type: cell-based
MAO = test system: MAO; set-up: method as in PMID 27374845; details: cited from earlier work
[6] = ~2.0 times IC50, preincubation 30 min

For `O=C1Nc2ccc(OCc3ccc(Cl)c(Cl)c3)cc2C1=O` [A3], the IC50 (MAO-B [1]) is given as 0.003 µM.

For `O=C1Nc2ccc(Br)cc2C1=O` [Compound 1f], the IC50 (MAO-B [1]) is given as 0.125 µM.

In the case of `C#CCN1C(=O)/C(=N/NC(=O)c2ccc3c(c2)OCO3)c2ccccc21` [Compound 3], the IC50 (MAO-B [1]) is given as 0.034 µM.

For `O=C(CN1CCc2cc(OCc3ccccc3)ccc21)N1CCN(CCO)CC1` [Compound 14], the IC50 (MAO-B [1]) is given as 8.65 µM.

With `O=C1Nc2ccccc2C1=NN=CC=Cc1ccccc1` [IHC1] the IC50 (MAO-B [2]) was greater than 40 µM, the remaining activity at 10 µM (MAO-B [2]) was 89.3 ± 3% and the IC50 (MAO-A) was greater than 40 µM. It also gave a remaining activity at 10 µM (MAO-A) of 94.5 ± 2.1%.

In the case of `O=C1Nc2ccc(Br)cc2C1=NN=CC=Cc1ccccc1` [IHC2], the IC50 (MAO-B [2]) is reported as 16.9 ± 0.397 µM, the remaining activity at 10 µM (MAO-B [2]) is reported as 61.4 ± 3.42% and the “SI (selectivity index)” value (MAO-B [3]) is reported as greater than 2.36. It also gave an IC50 (MAO-A) greater than 40 µM and a remaining activity at 10 µM (MAO-A) of 92.37 ± 0.52%.

In the case of `O=C1Nc2ccc(F)cc2/C1=N/N=CC=Cc1ccccc1` [IHC3], the “Type of MAO-B inhibition” value (MAO-B [4]; Lineweaver-Burk plot) is reported as “competitive MAO-B inhibitor”, the Ki (MAO-B [4]; secondary plot, benzylamine substrate) is reported as 0.51 ± 0.15 µM and the IC50 (MAO-B [2]) is reported as 1.67 µM. The “Reversibility of MAO-B inhibition” value (MAO-B [5]; dialysis) was “reversible MAO-B inhibitor”, the “Residual activity, dialyzed (AD)” value (MAO-B [5]; [6]) was 72.05% and the “Residual activity, undialyzed (AU)” value (MAO-B [5]; ~2.0 times IC50, preincubation 30 min, undialyzed) was 32.87%. The “SI (selectivity index)” value (MAO-B [3]) was greater than 23.92, the “Times higher MAO-B inhibition than IHMC2” value (MAO-B [3]; ratio of IC50 values) was 15.07 times and the “Times higher MAO-B inhibition than IHNC2” value (MAO-B [3]; ratio of IC50 values) was 13.15 times. For the same compound, the IC50 (MAO-A) was greater than 40 µM, the remaining activity at 10 µM (MAO-A) was 76.9 ± 1.55% and the Cell viability trend (SH-SY5Y cells; 25 µg/mL IHC3, rotenone-induced cells, MTT) was “viability decreased”. The viability at 12.5 µg/mL (SH-SY5Y cells; Homo sapiens, SH-SY5Y, 12.5 µg/mL IHC3, rotenone-induced cells, MTT, 24 h, read-out: Cell viability (maximum)) was 89.7% and the “Cell death caused by rotenone” value (SH-SY5Y cells; SH-SY5Y neuroblastoma cells) was “greatly decreased the cell death”.

In the case of `O=C1Nc2ccc(Cl)cc2C1=NN=CC=Cc1ccccc1` [IHC4], the IC50 (MAO-B [2]) is reported as 27.5 ± 1.15 µM, the remaining activity at 10 µM (MAO-B [2]) is reported as 73.9 ± 8.87% and the “SI (selectivity index)” value (MAO-B [3]) is reported as greater than 1.46. The IC50 (MAO-A) was greater than 40 µM and the remaining activity at 10 µM (MAO-A) was 86.7 ± 1.78%.

For `COc1ccc2c(c1)C(=NN=CC=Cc1ccccc1)C(=O)N2` [IHC5], the IC50 (MAO-B [2]) was greater than 40 µM, the remaining activity at 10 µM (MAO-B [2]) was 75.8 ± 6.17% and the IC50 (MAO-A) was greater than 40 µM. For the same compound, the remaining activity at 10 µM (MAO-A) was 82.3 ± 1.8%.

`Cc1ccc2c(c1)C(=NN=CC=Cc1ccccc1)C(=O)N2` [IHC6] gave an IC50 (MAO-B [2]) greater than 40 µM, a remaining activity at 10 µM (MAO-B [2]) of 79.4 ± 3.25% and an IC50 (MAO-A) greater than 40 µM. The remaining activity at 10 µM (MAO-A) was 98.1 ± 1.55%.

With `COc1ccc(C=CC=NN=C2C(=O)Nc3ccccc32)cc1` [IHMC1] the IC50 (MAO-B [2]) was greater than 40 µM, the remaining activity at 10 µM (MAO-B [2]) was 96.89 ± 0.95% and the IC50 (MAO-A) was greater than 40 µM. The remaining activity at 10 µM (MAO-A) was 89.9 ± 1.3%.

In the case of `COc1ccc(C=CC=NN=C2C(=O)Nc3ccc(Br)cc32)cc1` [IHMC2], the IC50 (MAO-B [2]) is reported as 25.19 ± 0.147 µM, the remaining activity at 10 µM (MAO-B [2]) is reported as 78.1 ± 1.12% and the “SI (selectivity index)” value (MAO-B [3]) is reported as greater than 1.59. It also gave an IC50 (MAO-A) greater than 40 µM and a remaining activity at 10 µM (MAO-A) of 86.63 ± 0.52%.

`COc1ccc(C=CC=NN=C2C(=O)Nc3ccc(F)cc32)cc1` [IHMC3] showed an IC50 (MAO-B [2]) greater than 40 µM, a remaining activity at 10 µM (MAO-B [2]) of 81.3 ± 4.61% and an IC50 (MAO-A) greater than 40 µM. For the same compound, the remaining activity at 10 µM (MAO-A) was 85.5 ± 6.42%.

`COc1ccc(C=CC=NN=C2C(=O)Nc3ccc(Cl)cc32)cc1` [IHMC4] gave an IC50 (MAO-B [2]) greater than 40 µM, a remaining activity at 10 µM (MAO-B [2]) of 76.5 ± 3.27% and an IC50 (MAO-A) greater than 40 µM. For the same compound, the remaining activity at 10 µM (MAO-A) was 81.46 ± 0.77%.

`COc1ccc(C=CC=NN=C2C(=O)Nc3ccc(OC)cc32)cc1` [IHMC5] gave an IC50 (MAO-B [2]) greater than 40 µM, a remaining activity at 10 µM (MAO-B [2]) of 85.6 ± 4.27% and an IC50 (MAO-A) greater than 40 µM. The remaining activity at 10 µM (MAO-A) was 84.48 ± 0.73%.

Work on `COc1ccc(C=CC=NN=C2C(=O)Nc3ccc(C)cc32)cc1` [IHMC6] yielded an IC50 (MAO-B [2]) greater than 40 µM, a remaining activity at 10 µM (MAO-B [2]) of 91.8 ± 3.48% and an IC50 (MAO-A) greater than 40 µM. For the same compound, the remaining activity at 10 µM (MAO-A) was 89.8 ± 2.55%.

With `O=C1Nc2ccccc2C1=NN=CC=Cc1ccc([N+](=O)[O-])cc1` [IHNC1] the IC50 (MAO-B [2]) was greater than 40 µM, the remaining activity at 10 µM (MAO-B [2]) was 96.9 ± 3.36% and the IC50 (MAO-A) was greater than 40 µM. It also gave a remaining activity at 10 µM (MAO-A) of 88.7 ± 2.4%.

For `O=C1Nc2ccc(Br)cc2C1=NN=CC=Cc1ccc([N+](=O)[O-])cc1` [IHNC2], the IC50 (MAO-B [2]) was 22 ± 0.354 µM, the remaining activity at 10 µM (MAO-B [2]) was 71.2 ± 1.99% and the “SI (selectivity index)” value (MAO-B [3]) was greater than 1.82. The IC50 (MAO-A) was greater than 40 µM and the remaining activity at 10 µM (MAO-A) was 88.5 ± 0.71%.

`O=C1Nc2ccc(F)cc2C1=NN=CC=Cc1ccc([N+](=O)[O-])cc1` [IHNC3] gave an IC50 (MAO-B [2]) greater than 40 µM, a remaining activity at 10 µM (MAO-B [2]) of 78.9 ± 3.35% and an IC50 (MAO-A) greater than 40 µM. The remaining activity at 10 µM (MAO-A) was 80.4 ± 0.57%.

In the case of `O=C1Nc2ccc(Cl)cc2C1=NN=CC=Cc1ccc([N+](=O)[O-])cc1` [IHNC4], the IC50 (MAO-B [2]) is reported as 26.5 ± 0.6 µM, the remaining activity at 10 µM (MAO-B [2]) is reported as 74.5 ± 4.63% and the “SI (selectivity index)” value (MAO-B [3]) is reported as greater than 1.51. The IC50 (MAO-A) was greater than 40 µM and the remaining activity at 10 µM (MAO-A) was 82.3 ± 0.99%.

In the case of `COc1ccc2c(c1)C(=NN=CC=Cc1ccc([N+](=O)[O-])cc1)C(=O)N2` [IHNC5], the IC50 (MAO-B [2]) is reported as greater than 40 µM, the remaining activity at 10 µM (MAO-B [2]) is reported as 82 ± 1.05% and the IC50 (MAO-A) is reported as greater than 40 µM. It also gave a remaining activity at 10 µM (MAO-A) of 88.6 ± 1.98%.

For `Cc1ccc2c(c1)C(=NN=CC=Cc1ccc([N+](=O)[O-])cc1)C(=O)N2` [IHNC6], the IC50 (MAO-B [2]) was greater than 40 µM, the remaining activity at 10 µM (MAO-B [2]) was 81.1 ± 6.4% and the IC50 (MAO-A) was greater than 40 µM. The remaining activity at 10 µM (MAO-A) was 87.2 ± 1.13%.

In the case of `C[C@H](NCc1ccc(OCc2cccc(F)c2)cc1)C(N)=O` [Safinamide, reference compound], the “Residual activity, dialyzed (AD)” value (MAO-B [5]; [6]) is reported as 85.86%.

For `O=C1Nc2ccccc2C1=O` [isatin, 1H-indole-2,3-dione], the IC50 (MAO) is given as roughly 3 µM.
